Results taken from publication PMC7588595, “Small-molecule active pharmaceutical ingredients of approved cancer therapeutics inhibit human aspartate/asparagine-β-hydroxylase” (Bioorganic & Medicinal Chemistry, 2020).
Counter-ions that a name gives are not always drawn. Like-named read-outs stand apart in the source and are kept apart here.

Molecular target: T1, human AspH (His6-AspH315–758) (Homo sapiens, UniProt Q12797)
T1 construct: N-Terminally His6-tagged human AspH315–758 (His6-AspH315–758) was produced in Escherichia coli BL21 (DE3) cells; made in house; host or cells: Escherichia coli BL21 (DE3), pET-28a(+) vector
T1 sequence (Q12797 315-758): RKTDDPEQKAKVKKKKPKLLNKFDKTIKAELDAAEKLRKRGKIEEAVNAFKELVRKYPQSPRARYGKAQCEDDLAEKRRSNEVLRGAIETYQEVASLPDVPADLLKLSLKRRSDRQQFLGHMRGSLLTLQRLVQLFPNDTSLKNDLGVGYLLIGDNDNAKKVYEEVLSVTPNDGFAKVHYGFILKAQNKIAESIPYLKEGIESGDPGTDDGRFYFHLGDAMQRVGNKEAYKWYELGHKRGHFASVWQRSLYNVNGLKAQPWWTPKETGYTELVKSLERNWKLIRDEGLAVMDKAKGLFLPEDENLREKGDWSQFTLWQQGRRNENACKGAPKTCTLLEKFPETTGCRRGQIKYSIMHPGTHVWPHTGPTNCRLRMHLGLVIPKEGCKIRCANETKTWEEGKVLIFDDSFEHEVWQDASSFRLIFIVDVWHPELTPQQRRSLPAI
Experiment: SPE-MS AspH inhibition assay (hFX-CP101-119 substrate hydroxylation)
Format: biochemical

[1] = AspH-inhibitor screening, 384-well Plate 1
[2] = AspH-inhibitor screening, 384-well Plate 1, substrate conversion
[3] = AspH-inhibitor screening, Plate 1-duplicate
[4] = AspH-inhibitor screening, Plate 1-duplicate, substrate conversion

Plate 1 (% inhibition) [1] [%]	Plate 1 (% conversion) [2] [%]	Plate 1-duplicate (% inhibition) [3] [%]	Plate 1-duplicate (% conversion) [4] [%]	Compound	Plate 1 (% conversion) [%]	Plate 1 (% inhibition) [%]	Plate 1-duplicate (% conversion) [%]	Plate 1-duplicate (% inhibition) [%]
20.56	40.26	11.48	46.35	CN1CCN(c2nc(C3=C(c4c[nH]c5ccccc45)C(=O)NC3=O)c3ccccc3n2)CC1 [Sotrastaurin]	–	–	–	–
9.55	45.34	7.71	48.22	CC[C@H](Nc1ncnc2[nH]cnc12)c1nc2cccc(F)c2c(=O)n1-c1ccccc1 [Idelalisib]	–	–	–	–
75.12	15.06	75.95	14.37	CN(C)CCOc1ccc(/C(=C(/CCCl)c2ccccc2)c2ccccc2)cc1 [Toremifene citrate]	–	–	–	–
-1.86	50.61	-1.99	53.03	CCNC(=O)CCC/C=C\C[C@@H]1[C@@H](/C=C/[C@@H](O)CCc2ccccc2)[C@H](O)C[C@@H]1O [Bimatoprost]	–	–	–	–
–	–	–	–	O=P1(N(CCCl)CCCl)NCCCO1 (centres unmarked) [Clafen (Cyclophosphamide, Endoxan)]	48.48	2.76	50.72	2.67
5.28	47.31	3.08	50.52	CC[C@H](Nc1ncnc2[nH]cnc12)c1nc2cccc(F)c2c(=O)n1-c1ccccc1 [CAL-101]	–	–	–	–
-0.11	49.80	7.93	48.11	CN(C)/N=N/c1[nH]cnc1C(N)=O [Dacarbazine]	–	–	–	–
6.30	46.84	4.95	49.58	CN(N=O)C(=O)N[C@@H](C=O)[C@@H](O)[C@H](O)[C@H](O)CO [Streptozocin]	–	–	–	–
4.47	47.69	-1.73	52.90	Oc1ccc2c(c1)CC[C@H](c1ccccc1)[C@@H]2c1ccc(OCCN2CCCC2)cc1 [Lasofoxifene]	–	–	–	–
5.12	47.39	1.33	51.38	Nc1nc(F)nc2c1ncn2[C@@H]1O[C@H](COP(=O)(O)O)[C@@H](O)[C@@H]1O [Fludarabine phosphate]	–	–	–	–
–	7.13	–	6.90	CO[C@@H]1[C@H](N(C)C(=O)c2ccccc2)C[C@H]2O[C@]1(C)n1c3ccccc3c3c4c(c5c6ccccc6n2c5c31)C(=O)NC4 [PKC412_Midostaurin]	–	–	–	–
6.01	46.97	4.15	49.98	C[C@]1(c2nc3c(C(N)=O)cccc3[nH]2)CCCN1 [ABT-888 (Veliparib)]	–	–	–	–
-13.39	55.93	-13.16	58.57	CC(C)(C)Cn1c(N)nc2ccc(-c3[nH]c(C(C)(C)C)nc3-c3ccc(F)cc3)nc21 [LY2228820 (CP868569)]	–	–	–	–
-1.55	50.47	0.18	51.95	Cc1cc(C(C)Nc2ccccc2)c2nc(N3CCOCC3)cc(=O)n2c1 (centres unmarked) [TGX-221]	–	–	–	–
5.65	47.14	5.00	49.56	COc1c(C)cnc(Cn2cnc3c(Cl)nc(N)nc32)c1C [BIIB021]	–	–	–	–
11.08	44.63	4.27	49.93	O=C(CCBr)N1CCN(C(=O)CCBr)CC1 [Pipobroman]	–	–	–	–
-5.40	52.24	-0.39	52.24	C=C(c1ccc(C(=O)O)cc1)c1cc2c(cc1C)C(C)(C)CCC2(C)C [Bexarotene]	–	–	–	–
4.45	47.69	6.61	48.76	Nc1ccccc1NC(=O)c1ccc(CNc2nccc(-c3cccnc3)n2)cc1 [MGCD0103_Mocetinostat]	–	–	–	–
17.35	41.74	14.45	44.88	O=C(c1ccc(OCCN2CCCCC2)cc1)c1c(-c2ccc(O)cc2)sc2cc(O)ccc12 [Raloxifene]	–	–	–	–
44.02	29.42	37.62	33.38	Cc1[nH]c2ccccc2c1CCNCc1ccc(/C=C/C(=O)NO)cc1 [Panobinostat]	–	–	–	–
-2.32	50.82	2.01	51.04	C[C@]12C=CC(=O)C=C1CC[C@@H]1[C@@H]2C(=O)C[C@@]2(C)[C@H]1CC[C@]2(O)C(=O)CO [Prednisone]	–	–	–	–
-0.09	49.79	2.46	50.82	O=C(Nc1c[nH]nc1-c1nc2ccc(CN3CCOCC3)cc2[nH]1)NC1CC1 [AT9283]	–	–	–	–
17.80	41.53	10.26	46.95	Nc1nc2[nH]cc(CCc3ccc(C(=O)N[C@@H](CCC(=O)O)C(=O)O)cc3)c2c(=O)[nH]1 [Pemetrexed]	–	–	–	–
20.47	40.30	25.89	39.20	NCC(=O)CCC(=O)O [Aminolevulinic acid hydrochloride]	–	–	–	–

Compound	Plate 1 (% inhibition) [1] [%]	Plate 1 (% conversion) [2] [%]	Plate 1-duplicate (% inhibition) [3] [%]	Plate 1-duplicate (% conversion) [4] [%]	Plate 1 (% conversion) [%]	Plate 1 (% inhibition) [%]	Plate 1-duplicate (% conversion) [%]	Plate 1-duplicate (% inhibition) [%]
Nc1nc(Cl)nc2c1ncn2[C@H]1C[C@H](O)[C@@H](CO)O1 [Cladribine]	3.47	48.15	3.70	50.21	–	–	–	–
CO[C@H]1/C=C\C=C(/C)C(=O)NC2=CC(=O)C(NCCN(C)C)=C(C[C@@H](C)C[C@H](OC)[C@H](O)[C@@H](C)/C=C(\C)[C@@H]1OC(N)=O)C2=O [17-DMAG (Alvespimycin)]	-4.95	52.04	-6.36	55.19	–	–	–	–
CC(O)(CS(=O)(=O)c1ccc(F)cc1)C(=O)Nc1ccc(C#N)c(C(F)(F)F)c1 (centres unmarked) [Bicalutamide]	-2.20	50.76	0.00746	52.04	–	–	–	–
Cl.N[C@@H](Cc1ccc(N(CCCl)CCCl)cc1)C(=O)O [Melphalan hydrochloride]	8.23	45.95	3.67	50.22	–	–	–	–
